Clc1ccc(Nc2nnc(Cc3ccncc3)c3ncccc23)cc1
melting point: 220 to 222 °C

Source: patent publication US20100226931A1, “Compounds for immunopotentiation” (priority 2004, published 2010)
